Measurements published in PMC4142842, “Synthesis of isoprenoid bisphosphonate ethers through C–P bond formations: Potential inhibitors of geranylgeranyl diphosphate synthase” (Beilstein Journal of Organic Chemistry, 2014).
Read-outs that look alike come from different tables or passages of the source.

Assays:
[1] = molecular target: T1, geranylgeranyl diphosphate synthase (GGDPS) (Homo sapiens, UniProt O95749); test: GGDPS enzyme assay (14C-IPP incorporation, FPP substrate); assay type: biochemical; conditions: for IC50 / activity against GGDPS (in words): enzyme assay; for IC50: 10 µM FPP, 10 min preincubation
T1 construct: gift of Dr. James E. Dunford (not a commercial vendor)
T1 sequence (O95749 1-300): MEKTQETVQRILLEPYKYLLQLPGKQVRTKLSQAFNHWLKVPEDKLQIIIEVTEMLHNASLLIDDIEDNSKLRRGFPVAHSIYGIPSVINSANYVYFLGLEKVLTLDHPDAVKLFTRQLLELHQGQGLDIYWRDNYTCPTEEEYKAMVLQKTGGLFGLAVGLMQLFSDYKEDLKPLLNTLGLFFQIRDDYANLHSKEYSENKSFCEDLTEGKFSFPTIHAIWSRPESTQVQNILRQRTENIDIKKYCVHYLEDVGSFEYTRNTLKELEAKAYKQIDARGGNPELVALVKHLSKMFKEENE

[2] = molecular target: T2, farnesyl diphosphate synthase (FDPS) (Homo sapiens, UniProt P14324); test: FDPS enzyme assay (14C-IPP incorporation, GPP substrate); assay type: biochemical; conditions: for IC50: 10 µM GPP, 10 min preincubation
T2 construct: gift of Dr. James E. Dunford (not a commercial vendor)
T2 sequence (P14324 1-419): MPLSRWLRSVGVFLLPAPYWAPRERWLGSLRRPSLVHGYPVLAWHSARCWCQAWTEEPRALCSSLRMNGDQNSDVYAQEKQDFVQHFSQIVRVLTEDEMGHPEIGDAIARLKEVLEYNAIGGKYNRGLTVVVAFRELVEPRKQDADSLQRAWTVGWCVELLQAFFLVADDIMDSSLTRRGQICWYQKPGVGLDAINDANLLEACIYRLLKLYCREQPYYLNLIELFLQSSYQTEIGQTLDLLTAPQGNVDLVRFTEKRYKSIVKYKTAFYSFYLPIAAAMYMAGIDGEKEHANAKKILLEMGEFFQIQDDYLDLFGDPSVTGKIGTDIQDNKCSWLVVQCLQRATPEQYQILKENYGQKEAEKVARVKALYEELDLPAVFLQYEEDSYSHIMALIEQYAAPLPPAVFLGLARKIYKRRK

[3] = tested on: K562 cells; design: method as in PMID 16517172; conditions: micromolar DGBP; cited from earlier work
[4] = molecular target: T2, farnesyl diphosphate synthase (FDPS); design: method as in PMID 17208200; conditions: earlier enzyme assays; cited from earlier work
[5] = molecular target: T1, geranylgeranyl diphosphate synthase (GGDPS); conditions: previously reported limited activity; cited from earlier work

Structure (SMILES) | IC50 [1] | activity against FDPS (in words) [2] | IC50 [2] | also measured
CC(C)=CCC/C(C)=C/CC(OCC[C@@H](C)CCC=C(C)C)(P(=O)([O-])[O-])P(=O)([O-])[O-].[Na+].[Na+].[Na+].[Na+] [Compound 24] | 82 nM | no activity | > 10000 nM | fold more potent than the DGBP control (5), GGDPS ([1]; ratio of GGDPS IC50 values): ~ 2.6 fold
CC(C)=CCC/C(C)=C/COC(P(=O)(O)O)P(=O)(O)O [Compound 11] | 238 nM |  | > 10000 nM | 
CC(C)=CCC/C(C)=C/CC(OCC=C(C)C)(P(=O)(O)O)P(=O)(O)O [Compound 16] | 684 nM |  | 830 nM | 
CC(C)=CCC/C(C)=C/COC(C/C=C(\C)CCC=C(C)C)(P(=O)(O)O)P(=O)(O)O [Compound 6] | 408 nM |  | > 10000 nM | 
CC(C)=CCC/C(C)=C/CC(C/C=C(\C)CCC=C(C)C)(P(=O)(O)O)P(=O)(O)O [Compound 5, digeranyl bisphosphonate] |  |  | > 10000 nM | Rap1a geranylgeranylation (Western blot) [3]: only partially modified; IC50 [4]: > 10000 nM
CC(C)=CCC/C(C)=C/COC(CC=C(C)C)(P(=O)(O)O)P(=O)(O)O [Compound 20] | 274 nM |  | > 10000 nM | 
CC(C)=CCOC(CC=C(C)C)(P(=O)(O)O)P(=O)(O)O [Compound 18] | 4750 nM | little or no activity | 5260 nM | activity against GGDPS (in words) [1]: little or no activity
CC(C)=CCCC(C)=CCC(P(=O)(O)O)P(=O)(O)O [geranyl bisphosphonate] |  |  |  | activity previously reported (GGDPS inhibition) [5]: 10 µM
CC(C)=CCOC(P(=O)(O)O)P(=O)(O)O [Compound 14] |  | little or no activity |  | activity against GGDPS (in words) [1]: little or no activity
